Legend:
[1] = molecular target: Recombinant human Cbl-b (aa 36-427) (Homo sapiens, UniProt Q13191); assay: Cbl-b Biochemical Assay (TR-FRET); conditions: read-out: TR-FRET hCbl-b IC50
[2] = molecular target: T1, Recombinant human c-Cbl (aa 47-435) (Homo sapiens, UniProt P22681); assay: c-Cbl Biochemical Assay (TR-FRET); conditions: hc-Cbl Biochemical Assay (TR-FRET); read-out: TR-FRET hcCbl IC50
T1 sequence (P22681 47-435): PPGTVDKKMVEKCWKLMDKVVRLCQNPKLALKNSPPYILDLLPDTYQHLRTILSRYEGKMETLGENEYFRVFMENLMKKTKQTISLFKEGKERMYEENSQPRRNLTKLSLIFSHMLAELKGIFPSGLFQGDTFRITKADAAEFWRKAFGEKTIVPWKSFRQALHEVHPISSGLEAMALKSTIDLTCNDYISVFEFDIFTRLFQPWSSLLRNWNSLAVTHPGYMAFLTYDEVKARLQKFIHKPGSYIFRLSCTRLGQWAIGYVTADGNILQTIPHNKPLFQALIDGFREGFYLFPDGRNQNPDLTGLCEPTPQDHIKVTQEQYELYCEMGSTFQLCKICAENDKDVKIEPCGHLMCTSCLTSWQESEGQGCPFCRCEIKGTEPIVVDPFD

[3] = test system: Jurkat (clone E6-1) cells with NFAT luciferase reporter; assay: Jurkat reporter assay (NFAT Luciferase); type: cell-based; conditions: Homo sapiens; Jurkat NFAT luciferase reporter cells, anti-CD3 stimulation, 6 hr; read-out: Jurkat NFAT EC50

Sequence of Recombinant human Cbl-b (aa 36-427) (Q13191 36-427): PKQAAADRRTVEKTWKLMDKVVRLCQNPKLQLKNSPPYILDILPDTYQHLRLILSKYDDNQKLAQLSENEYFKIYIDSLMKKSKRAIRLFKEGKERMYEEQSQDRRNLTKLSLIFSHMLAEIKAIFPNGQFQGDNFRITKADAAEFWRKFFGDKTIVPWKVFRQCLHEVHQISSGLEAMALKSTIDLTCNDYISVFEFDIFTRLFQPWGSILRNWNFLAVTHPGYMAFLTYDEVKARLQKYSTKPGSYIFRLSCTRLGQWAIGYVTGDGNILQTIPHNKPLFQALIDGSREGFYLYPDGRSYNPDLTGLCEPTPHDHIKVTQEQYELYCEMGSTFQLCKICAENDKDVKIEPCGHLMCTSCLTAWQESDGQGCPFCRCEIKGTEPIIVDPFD

| IC50 [1] [nM] | IC50 [2] [nM] | EC50 [3] [nM] | SMILES |
| --- | --- | --- | --- |
| < 200 | < 200 | < 200 | Cn1cnnc1-c1cc(F)ccc1-c1cccc(-c2nc3cc(CN[C@@H]4COC[C@@H]4O)cc(C(F)(F)F)c3o2)c1 [DH-2, (3R,4R)-4-(((2-(4′-Fluoro-2′-(4-methyl-4H-1,2,4-triazol-3-yl)-[1,1′-biphenyl]-3-yl)-7-(trifluoromethyl)benzo[d]oxazol-5-yl)methyl)amino)tetrahydrofuran-3-ol] |
| < 200 | < 200 | < 200 | Cn1cnnc1-c1cc(F)ccc1-c1cc(-c2nc3cc(CNCC4(O)CCC4)cc(C(F)(F)F)c3o2)cc(C2CC2)c1 [JS-1, 1-((((2-(5-Cyclopropyl-4′-fluoro-2′-(4-methyl-4H-1,2,4-triazol-3-yl)-[1,1′-biphenyl]-3-yl)-7-(trifluoromethyl)benzo[d]oxazol-5-yl)methyl)amino)methyl)cyclobutan-1-ol] |
| 200 to 1000 | 200 to 1000 | 1000 to 10000 | COc1cc(CN[C@@H]2CCC[C@@]2(C)O)cc2nc(-c3cccc(-c4ccc(F)cc4-c4nncn4C)c3)oc12 [GJ-2, (1R,2R)-2-(((2-(4′-fluoro-2′-(4-methyl-4H-1,2,4-triazol-3-yl)-[1,1′-biphenyl]-3-yl)-7-methoxybenzo[d]oxazol-5-yl)methyl)amino)-1-methylcyclopentan-1-ol, Formic Acid] |
| 1000 to 10000 | 1000 to 10000 | 1000 to 10000 | Cn1cnnc1-c1cc(F)ccc1-c1cccc(-c2nc3cc(CN4C[C@@H]5C[C@H]4CO5)cc(C(F)(F)F)c3o2)c1 [IN-2, 5-(((1S,4S)-2-Oxa-5-azabicyclo[2.2.1]heptan-5-yl)methyl)-2-(4′-fluoro-2′-(4-methyl-4H-1,2,4-triazol-3-yl)-[1,1′-biphenyl]-3-yl)-7-(trifluoromethyl)benzo[d]oxazole] |
| < 200 | < 200 | < 200 | CCOc1cc(-c2ccc(F)cc2-c2nncn2C)cc(-c2nc3cc(CN[C@@H]4CCC[C@@H]4O)cc(OC)c3o2)n1 [ADM-14, (1S,2R)-2-{[(2-{6-Ethoxy-4-[4-fluoro-2-(4-methyl-1,2,4-triazol-3-yl)phenyl]pyridin-2-yl}-7-methoxy-1,3-benzoxazol-5-yl)methyl]amino}cyclopentan-1-ol] |
| < 200 | 200 to 1000 | 1000 to 10000 | Cn1cnnc1-c1cc(F)ccc1-c1cc(-c2nc3cc(C4(N)CC4)cc(F)c3o2)nc(C2CC2)c1 [AGN-3, 1-(2-{6-Cyclopropyl-4-[4-fluoro-2-(4-methyl-1,2,4-triazol-3-yl)phenyl]pyridin-2-yl}-7-fluoro-1,3-benzoxazol-5-yl) cyclopropan-1-amine] |
| < 200 | 200 to 1000 | 1000 to 10000 | Cn1cnnc1-c1cc(F)ccc1-c1cccc(-c2nc3ccc(CN[C@@H]4CCC[C@@H]4O)cn3n2)c1 [GK-5, (1S,2R)-2-(((2-(4′-Fluoro-2′-(4-methyl-4H-1,2,4-triazol-3-yl)-[1,1′-biphenyl]-3-yl)-[1,2,4]triazolo[1,5-a]pyridin-6-yl)methyl)amino)cyclopentan-1-ol, Formic Acid] |
| 1000 to 10000 | 1000 to 10000 | 1000 to 10000 | COC(=O)c1cc2nc(-c3cc(-c4ccc(F)cc4-c4nncn4C)cc(C4CC4)n3)oc2c(F)c1F [AFW-1, Methyl 2-{6-cyclopropyl-4-[4-fluoro-2-(4-methyl-1,2,4-triazol-3-yl)phenyl]pyridin-2-yl}-6,7-difluoro-1,3-benzoxazole-5-carboxylate] |
| < 200 | < 200 | < 200 | COc1cc(CNC[C@@H]2CCCO2)cc2nc(-c3cccc(-c4ccc(F)cc4-c4nncn4C)c3)oc12 [FS-2, (S)-1-(2-(4′-Fluoro-2′-(4-methyl-4H-1,2,4-triazol-3-yl)-[1,1′-biphenyl]-3-yl)-7-methoxybenzo[d]oxazol-5-yl)-N-((tetrahydrofuran-2-yl)methyl)methanamine] |
| < 200 | < 200 | < 200 | Cn1cnnc1-c1cc(F)ccc1-c1cccc(-c2nc3cc(CN[C@@H]4CCC[C@@H]4O)ccc3o2)c1 [CM-1, (1S,2R)-2-(((2-(4′-Fluoro-2′-(4-methyl-4H-1,2,4-triazol-3-yl)-[1,1′-biphenyl]-3-yl)benzo[d]oxazol-5-yl)methyl)amino)cyclopentan-1-ol] |
| < 200 | 200 to 1000 | 1000 to 10000 | COCCN(Cc1cc(C(F)(F)F)c2oc(-c3cccc(-c4ccc(F)cc4-c4nncn4C)c3)nc2c1)CC(C)(C)O [EZ-3] |
| < 200 | < 200 | < 200 | CC[C@H](O)CNCc1cc(C(F)(F)F)c2oc(-c3cccc(-c4ccc(F)cc4-c4nncn4C)c3)nc2c1 [DG-2, (S)-1-(((2-(4′-Fluoro-2′-(4-methyl-4H-1,2,4-triazol-3-yl)-[1,1′-biphenyl]-3-yl)-7-(trifluoromethyl)benzo[d]oxazol-5-yl)methyl)amino)butan-2-ol] |
| < 200 | 200 to 1000 | 200 to 1000 | COc1cc(CNCC2COC2)cc2nc(-c3cccc(-c4ccc(F)cc4-c4nncn4C)c3)oc12 [GZ-1, 1-(2-(4′-Fluoro-2′-(4-methyl-4H-1,2,4-triazol-3-yl)-[1,1′-biphenyl]-3-yl)-7-methoxybenzo[d]oxazol-5-yl)-N-(oxetan-3-ylmethyl)methanamine] |
| < 200 | < 200 | < 200 | [2H]C([2H])([2H])N(Cc1cc(C(F)(F)F)c2oc(-c3cccc(-c4ccc(F)cc4-c4nncn4C)c3)nc2c1)[C@@H]1CCC[C@@H]1O [IT-1, (1S,2R)-2-(((2-(4′-Fluoro-2′-(4-methyl-4H-1,2,4-triazol-3-yl)-[1,1′-biphenyl]-3-yl)-7-(trifluoromethyl)benzo[d]oxazol-5-yl)methyl)(methyl-d3)amino)cyclopentan-1-ol] |
| < 200 | < 200 | 200 to 1000 | COC1(CN[C@@H](C)c2cc(F)c3oc(-c4cc(-c5ccc(F)cc5-c5nncn5C)cc(C5CC5)n4)nc3c2)CCC1 [AFS-2, [(1S)-1-(2-{6-Cyclopropyl-4-[4-fluoro-2-(4-methyl-1,2,4-triazol-3-yl)phenyl]pyridin-2-yl}-7-fluoro-1,3-benzoxazol-5-yl)ethyl][(1-methoxycyclobutyl)methyl]amine] |
| < 200 | 200 to 1000 | 1000 to 10000 | COc1cc(CN[C@H]2C[C@@H](O)C2)cc2nc(-c3cccc(-c4ccc(F)cc4-c4nncn4C)c3)oc12 [GX-1, (1S,3S)-3-(((2-(4′-Fluoro-2′-(4-methyl-4H-1,2,4-triazol-3-yl)-[1,1′-biphenyl]-3-yl)-7-methoxybenzo[d]oxazol-5-yl)methyl)amino)cyclobutan-1-ol] |

| SMILES | IC50 [1] [nM] | IC50 [2] [nM] | EC50 [3] [nM] |
| --- | --- | --- | --- |
| Cn1cnnc1-c1cc(F)ccc1-c1cccc(-c2nc3cc(CO)cc(Br)c3o2)c1 [EQ-4, (7-Bromo-2-(4′-fluoro-2′-(4-methyl-4H-1,2,4-triazol-3-yl)-[1,1′-biphenyl]-3-yl)benzo[d]oxazol-5-yl)methanol] | 200 to 1000 | 200 to 1000 | 1000 to 10000 |
| C[C@H]1CCCN(Cc2cc(C(F)(F)F)c3[nH]c(-c4cccc(-c5ccccc5-c5nncn5C)c4)nc3c2)C1 [AAI-5, 2-[2′-(4-Methyl-1,2,4-triazol-3-yl)-[1,1′-biphenyl]-3-yl]-6-{[(3S)-3-methylpiperidin-1-yl]methyl}-4-(trifluoromethyl)-3H-1,3-benzodiazole] | 200 to 1000 | 10000 to 50000 | 1000 to 10000 |

— patent US20250163038A1, “CBL-B MODULATORS AND USES THEREOF” (Nimbus Clio, Inc., priority 2021, published 2025)
